{"source": "patent US3985779A", "about": "“M-phenoxyphenyl propionic acid derivatives and preparation thereof” (Eisai Co., Ltd., priority 1973, dated 1976)", "test_system": "yeast-induced pyrexia", "experiment": "Antipyretic activity to the yeast-treated rats (Experiment I)", "format": "in vivo, rats (Wistar strain male)", "conditions": "for minimal effective dose: Rattus norvegicus, po", "experimental": "To Wistar strain male rats having about 300 - 350 grs. body weight, an aqueous suspension of yeast was subcutaneously injected to induce pyrexia.\nAt the lapse of 4 hours since the dose of the yeast suspension, the compounds under test given in hereinaftermentioned Table 10 in a form of suspension in a 5% gum arabic aqueous solution are orally administered. The rectal temperatures of the rats were measured periodically by means of a thermister-type thermometer sold by Japan Koden K.K. As control, said 5% gum arabic aqueous solution alone was administered.", "note": "Read-outs that look alike come from different tables or passages of the source."}
{"smiles": "CC(C(=O)O)c1cccc(Oc2ccccc2Cl)c1", "note": "(stereo not shown) [Compound (5), 2-[m-(o-chlorophenoxy)phenyl]propionic acid]", "values": [{"measurement": "body temperature relative to normal (in words)", "setting": "80 and 160 mg/kg p.o.", "result": "no body temperatures lower than the normal body temperatures"}, {"measurement": "Change in rectal temperature, mean ± S.E.", "setting": "1 hr, 1.25 mg/kg p.o.", "result": "+0.25 ± 0.09"}, {"measurement": "Change in rectal temperature, mean ± S.E.", "setting": "1 hr, 5 mg/kg p.o.", "result": "-0.15 ± 0.13"}, {"measurement": "Change in rectal temperature, mean ± S.E.", "setting": "1 hr, 20 mg/kg p.o.", "result": "-0.53 ± 0.10"}, {"measurement": "Change in rectal temperature, mean ± S.E.", "setting": "1 hr, 80 mg/kg p.o.", "result": "-0.55 ± 0.13"}, {"measurement": "Change in rectal temperature, mean ± S.E.", "setting": "1 hr, 160 mg/kg p.o.", "result": "-0.48 ± 0.14"}, {"measurement": "Change in rectal temperature, mean ± S.E.", "setting": "3 hrs, 1.25 mg/kg p.o.", "result": "+0.03 ± 0.21"}, {"measurement": "Change in rectal temperature, mean ± S.E.", "setting": "3 hrs, 5 mg/kg p.o.", "result": "-0.30 ± 0.17"}, {"measurement": "Change in rectal temperature, mean ± S.E.", "setting": "3 hrs, 20 mg/kg p.o.", "result": "-0.90 ± 0.10"}, {"measurement": "Change in rectal temperature, mean ± S.E.", "setting": "3 hrs, 80 mg/kg p.o.", "result": "-0.83 ± 0.09"}, {"measurement": "Change in rectal temperature, mean ± S.E.", "setting": "3 hrs, 160 mg/kg p.o.", "result": "-0.90 ± 0.17"}, {"measurement": "Change in rectal temperature, mean ± S.E.", "setting": "5 hrs, 1.25 mg/kg p.o.", "result": "+0.13 ± 0.15"}, {"measurement": "Change in rectal temperature, mean ± S.E.", "setting": "5 hrs, 5 mg/kg p.o.", "result": "-0.25 ± 0.16"}, {"measurement": "Change in rectal temperature, mean ± S.E.", "setting": "5 hrs, 20 mg/kg p.o.", "result": "-0.70 ± 0.27"}, {"measurement": "Change in rectal temperature, mean ± S.E.", "setting": "5 hrs, 80 mg/kg p.o.", "result": "-0.65 ± 0.16"}, {"measurement": "Change in rectal temperature, mean ± S.E.", "setting": "5 hrs, 160 mg/kg p.o.", "result": "-1.03 ± 0.19"}, {"measurement": "minimal effective dose", "setting": "1 h, p.o., compound (5): at one hour lapse, read-out: dose with significant antipyretic activity", "result": 5, "unit": "mg/kg"}, {"measurement": "minimal effective dose", "setting": "read-out: dose with tendency of an antipyretic activity", "result": 1.25, "unit": "mg/kg"}, {"measurement": "dose with maximum antipyretic activity", "setting": "p.o.", "result": 20, "unit": "mg/kg"}]}
